Measured values published in patent US11098040B2, “Compounds and methods of use” (Ferro Therapeutics, Inc., priority 2018, dated 2021).
Where two headings read alike, the source gives them in different places.

Legend:
HPAC = test: Cell proliferation assay, pancreatic cancer cell line HPAC; type: cell-based; details: Homo sapiens
Protocol: (§1) Cell viability assay was performed to assess the potency of the compounds in human cancer cell lines 786-O (renal cell carcinoma) and SJSA-1 (osteosarcoma). Additional cell lines, such as those described above in Example 4 as well as various others, e.g., pancreatic cancer cell lines (Panc 02.13, BxPC-3, Panc 12, Panc 02.03, Panc 6.03, PSN-1, HPAC, and Capan-1) and prostate cancer cell lines (PC-3, DU145, 22Rv1, NCI-H660, BPH1, LNCaP, BM-1604, and MDA PCa 2b), were tested for select compounds as shown in Table 25.
(§2) The cell proliferation assays for the compounds shown Table 25 was performed according to the protocols described herein, including Examples 4 and 6.

Panc 02.13 = test: Cell proliferation assay, pancreatic cancer cell line Panc 02.13; type: cell-based
Protocol: as §1, §2

AsPC-1 = test: Cell viability assay (CellTiter Glo), pancreatic adenocarcinoma AsPC-1; type: cell-based; details: Homo sapiens, ASPC1
Protocol: (§3) Cell viability assay was performed to assess the potency of the compounds in human cancer cell lines KP4 (pancreatic ductal adenocarcinoma), MiaPaCa-2 (pancreatic carcinoma), AsPC-1 (pancreatic adenocarcinoma, ascites), 143B (osteosarcoma), and SJSA-1 (osteosarcoma). Selected compounds were also assayed in a human breast epithelial cell line MCF-10A, a nontumorigenic cell line as a control to assess differential activity. Cells at a density of 500-5,000 cells/well were seeded in 96-well plates and incubated at 37° C. overnight. A series of 9 different concentrations of compound stocks (500×) were created by 3-fold serial dilution in DMSO. These compounds were further diluted in culture media and then added to cells so that the final DMSO concentration was equal to 0.25% or less. After 96 hours of incubation, 50 μL of CellTiter Glo reagent (Promega) was added to each well and luminescence was measured after 10 minutes using EnVision (PerkinElmer). Compounds titrated from top concentration of up to 30 μM. The select compounds were tested initially from 30 μM as the top concentration in duplicates (range of 4.6 nM-30 μM). […] Luminescence from cells treated with DMSO alone was set as Max and % of inhibition was calculated as follows: Inhibition %=(Max-Sample value)/Max*100. Data was analyzed using XL-fit software (ID Business Solutions Ltd.). IC50, relative IC50, or % of top inhibition was calculated.
(§4) The results of the assay in the pancreatic cell lines are given in Table 15a for PANC1, Table 15b for MiaPaCa-2, and Table 15c for AsPC-1.

KP4 = test: Cell viability assay (CellTiter Glo), pancreatic ductal adenocarcinoma KP4; type: cell-based, human; details: Homo sapiens, KP-4, Cell Line KP4; read-out: IC50
Outline: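 KP4 cells seeded at 1,000–10,000 per well, treated 96 h with 9-point 3-fold dilutions from 30 μM top (4.6 nM–30 μM, duplicates; ≤0.25% DMSO). Viability by CellTiter Glo luminescence; % inhibition relative to DMSO-only wells, giving IC50, relative IC50 or % top inhibition.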

Capan-1 = test: Cell proliferation assay, pancreatic cancer cell line Capan-1; type: cell-based; details: Homo sapiens
Protocol: as §1, §2

Panc 02.03 = test: Cell proliferation assay, pancreatic cancer cell line Panc 02.03; type: cell-based; details: Homo sapiens
Protocol: as §1, §2

MiaPaCa-2 = test: Cell viability assay (CellTiter Glo), pancreatic carcinoma MiaPaCa-2; type: cell-based; details: Homo sapiens
Outline: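 MiaPaCa-2 and AsPC-1 cells were seeded overnight at 37 °C and exposed for 96 h to 9-point, 3-fold dilutions from up to 30 μM (final DMSO ≤0.25%). CellTiter Glo luminescence was read, and inhibition was calculated relative to DMSO-only cells. IC50, relative IC50 or % top inhibition was derived.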

BxPC-3 = test: Cell proliferation assay, pancreatic cancer cell line BxPC-3; type: cell-based; details: Homo sapiens
Protocol: as §1, §2

PSN-1 = test: Cell proliferation assay, pancreatic cancer cell line PSN-1; type: cell-based; details: Homo sapiens, PSN1
Protocol: as §1, §2

H2228 = test: Cell viability assay (CellTiter Glo), lung cancer cell line H2228; type: cell-based; details: Homo sapiens, NCI-H2228
Protocol: as §3
(§5) A group of selected analogs were further profiled in cell viability assays described above in multiple additional cancer cell lines, including lung cancer, melanoma, hepatocarcinoma, pancreatic cancer, leukemia, lymphoma, ovarian cancer, breast cancer, colon cancer, and sarcoma cell lines. Initial cell seeding numbers were adjusted for each cell line. Typically, 500-5000 cells/well for adherent cells and 5000-10000/well for suspension cells were seeded in 96-well plates.

Panc 12 = test: Cell proliferation assay, pancreatic cancer cell line Panc 12; type: cell-based; details: Cell Line Panc 12
Protocol: as §1, §2

Panc 6.03 = test: Cell proliferation assay, pancreatic cancer cell line Panc 6.03; type: cell-based
Protocol: as §1, §2

143B = test: Cell viability assay (CellTiter Glo), osteosarcoma 143B; type: cell-based; details: Homo sapiens
Protocol: as §3
(§6) The results of the assay in sarcoma cell lines are given in Table 21a for HT-1080 luc2 (fibrosarcoma expressing a luciferase gene), Table 21b for 143B (osteosarcoma), and Table 21c for SJSA-1 (osteosarcoma).

SJSA-1 = test: Cell viability assay (CellTiter Glo), osteosarcoma SJSA-1; type: cell-based; details: Homo sapiens, 96 hours
Outline: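 Cells seeded at 500-5,000/well overnight, then 96 h exposure to 9-point 3-fold dilutions from up to 30 μM (4.6 nM-30 μM), final DMSO ≤0.25%. Viability by CellTiter Glo luminescence; inhibition relative to DMSO-only cells, yielding IC50, relative IC50 or % top inhibition.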

in vivo = details: male, Balb/c nude, mouse, ip, 15 mg/kg
Protocol: (§8) Test compounds were dissolved either in 20% (w/w) sulfobutylether-β-cyclodextrin (SBECD) pH 3-7 aqueous solution, or 5% DMSO/(30-50%) PEG400/(65-45%) water. Test compound dosing solutions were administered intraperitoneally to Balb/c nude male mice. Blood samples were collected at various time points with EDTA-K2 as anti-coagulant on ice, and centrifuged to obtain plasma samples. The plasma samples were stored at −20° C. until analysis.
(§9) Into 10 μL of test compound plasma samples were added 2 μL DMSO then 200 μL of 5 ng/mL internal standard (VTSD) (Terfenadine) in MeOH/acetonitrile. The mixture was vortexed for 1 minute and centrifuged at 4000 rpm for 15 minutes. Calibration standards were prepared by spiking known amount of test compounds into blank plasma samples. The supernatant solution was diluted 5 times with Acetonitrile/H2O (with 0.1% formic acid, 1:1, v/v), and this is the solution for LC-MS/MS analysis. The limit of quantification (LOQ) was 1 ng/mL.
(§10) Typical HPLC mobile phases were mobile phase of 5 mM NH4OAc (with 0.05% formic acid); and mobile phase B of acetonitrile (with 0.1% formic acid). The HPLC column was Kinetex C18 (30 mm×3.00 mm). Mass spectrometer was tuned for each compound in the Multiple Reaction Monitoring (MRM) scanning mode and in the electrospray ionization mode. The lower limit of quantification was 1-10 ng.
(§11) In this study, K601 (RSL3) was formulated in 5% DMSO/30% PEG 400/65% water at 1.5 mg/mL. The volume of injection via intraperitoneal route was 10 mL/kg for a dose of 15 mg/kg. […] The limit of quantification (LOQ) was 1 ng/mL.
(§12) In this study, the compound was formulated in 20% (w/w) sulfobutylether-β-cyclodextrin (SBECD), pH 5 aqueous solution at 1.5 mg/mL. The volume of injection via intraperitoneal route was 10 mL/kg for a dose of 15 mg/kg. The concentration of test compounds in plasma were analyzed by LC-MS with the method described above. The limit of quantification was 1 ng/mL.
(§13) It was formulated in 5% DMSO/50% PEG400/45% Water pH adjusted to 4 with HCl as an aqueous solution at 1.0 mg/mL. The volume of injection via intraperitoneal route was 15 mL/kg for a dose of 15 mg/kg. The concentration of test compounds in plasma were analyzed by LC-MS with the method described above. The limit of quantification was 1 ng/mL. […] The limit of quantification was 1 ng/mL.
(§14) Compounds 24 and 28 were formulated in 20% (w/w) sulfobutylether-β-cyclodextrin (SBECD) with pH 3 and pH 4, respectively, as an aqueous solution at 1.0 mg/mL. Compound 67 was in 5% DMSO/50% PEG 400/45% water pH 4 (adjusted with 12 N HCl) aqueous solution at 1.0 mg/mL. The injection volume via intraperitoneal route was 10 mL/kg for a dose of 15 mg/kg. The concentration of test compounds in plasma were analyzed by LC-MS with the method described above. The limit of quantification was 1 ng/mL.

[1] = mouse, in vivo, ip, 15 mg/kg
Protocol: as §8, §9, §10, §11, §12, §13, §14

MCF-10A = test: Cell viability assay (CellTiter Glo), non-tumorigenic breast epithelial cell line MCF-10A; type: cell-based; details: Homo sapiens, 96 hours
Outline: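 MCF-10A cells (500-5,000/well) treated 96 h at 37° C with 9-point 3-fold dilutions from up to 30 μM, ≤0.25% DMSO, in duplicate. Viability by CellTiter Glo luminescence; % inhibition versus DMSO-only wells gave IC50, relative IC50 or % top inhibition. Paclitaxel positive control.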

MV-4-1 = test: Cell viability assay (CellTiter Glo), leukemia cell line MV-4-1; type: cell-based; details: 96 hours
Protocol: as §3, §5
(§7) The results of the assay in the leukemia cell lines are given in Table 16a for MV-4-1 and Table 16b for HL-60 and Kasumi-1.

HT29 = test: Cell viability assay (CellTiter Glo), colon cancer cell line HT29; type: cell-based; details: Homo sapiens, HT-29, 96 hours
Protocol: as §3, §5

HCC1954 = test: Cell viability assay (CellTiter Glo), breast cancer cell line HCC1954; type: cell-based; details: Homo sapiens, 96 hours
Protocol: as §3, §5

Raji = test: Cell viability assay (CellTiter Glo), lymphoma cell line Raji; type: cell-based; details: Homo sapiens, 96 hours
Protocol: as §3, §5

MDA-MB-435S = test: Cell viability assay (CellTiter Glo), melanoma cell line MDA-MB-435S; type: cell-based; details: Homo sapiens, 96 hours
Protocol: as §3, §5

HT-1080 luc2 = test: Cell viability assay (CellTiter Glo), fibrosarcoma HT-1080 luc2; type: cell-based; details: Homo sapiens, fibrosarcoma expressing a luciferase gene, 96 hours, CellTiter Glo, read-out: IC50 HT-1080 luc2
Protocol: as §3, §5, §6

Huh7 = test: Cell viability assay (CellTiter Glo), hepatocellular carcinoma Huh7; type: cell-based; details: Homo sapiens, Huh-7, 96 hours
Protocol: as §3, §5

REC-1 = test: Cell viability assay (CellTiter Glo), lymphoma cell line REC-1; type: cell-based; details: Homo sapiens, Rec1, 96 hours
Protocol: as §3, §5

H1299 = test: Cell viability assay (CellTiter Glo), lung cancer cell line H1299; type: cell-based; details: Homo sapiens, NCI-H1299, 96 hours
Protocol: as §3, §5

PANC1 = test: Cell viability assay (CellTiter Glo), pancreatic cell line PANC1; type: cell-based; details: Homo sapiens, PANC-1, 96 hours
Protocol: as §3, §5, §4

SK-OV-3 = test: Cell viability assay (CellTiter Glo), ovarian cancer cell line SK-OV-3; type: cell-based; details: Homo sapiens, 96 hours
Protocol: as §3, §5

SW480 = test: Cell viability assay (CellTiter Glo), colon cancer cell line SW480; type: cell-based; details: Homo sapiens, 96 hours
Protocol: as §3, §5

HL-60 = test: Cell viability assay (CellTiter Glo), leukemia cell line HL-60; type: cell-based; details: Homo sapiens, 96 hours
Protocol: as §3, §5, §7

Kasumi-1 = test: Cell viability assay (CellTiter Glo), leukemia cell line Kasumi-1; type: cell-based; details: Homo sapiens, 96 hours
Protocol: as §3, §5, §7

[2] = MIA PaCa-2, pancreatic carcinoma, 96 hours, CellTiter Glo, read-out: IC50 MiaPaCa-2
[3] = lung cancer cell line, 96 hours, CellTiter Glo, read-out: IC50 H2228

IC50 (SJSA-1) [nM] | IC50 (MiaPaCa-2; [2]) [nM] | IC50 (MV-4-1) [nM] | IC50 (HT29) [nM] | IC50 (HCC1954) [nM] | IC50 (Raji) [nM] | IC50 (MDA-MB-435S) [nM] | IC50 (HT-1080 luc2) [nM] | IC50 (Huh7) [nM] | IC50 (REC-1) [nM] | IC50 (H2228; [3]) [nM] | IC50 (H1299) [nM] | IC50 (PANC1) [nM] | IC50 (SK-OV-3) [nM] | IC50 (SW480) [nM] | IC50 (HL-60) [nM] | IC50 (Kasumi-1) [nM] | SMILES | IC50 (MCF-10A) [nM] | other results
 |  |  |  |  |  |  |  |  |  |  |  |  |  |  |  |  | C[C@H]1Cc2c([nH]c3ccccc23)[C@H](c2ccc(N3CCC3)cc2)N1C(=O)CCl [Compound 239] |  | IC50 (HPAC): 321 nM; IC50 (Panc 02.13): 1110 nM; IC50 (AsPC-1; Cell Line AsPC-1, read-out: IC50): 65.2 nM; IC50 (KP4): 4 nM; IC50 (Capan-1): > 1000 nM; IC50 (Panc 02.03): 394 nM; IC50 (MiaPaCa-2; Cell Line Mia PaCa-2, read-out: IC50): 259 nM; IC50 (BxPC-3): 910 nM; IC50 (PSN-1): 183 nM; IC50 (H2228; Cell Line H2228, read-out: IC50): 14.6 nM; IC50 (Panc 12): 57.8 nM; IC50 (Panc 6.03): 166 nM; IC50 (143B; Cell Line 143B, read-out: IC50): 1120 nM
18 | 5 |  |  |  |  |  |  |  |  |  |  |  |  |  |  |  | COC(=O)[C@H]1Cc2c([nH]c3ccccc23)[C@H](c2ccc(C(=O)OC(C)(C)C)cc2)N1C(=O)CCl [Example 1] | 850 | AUC (in vivo): 123 ng·h/mL; AUC(0-inf) (in vivo): 132 ng·h/mL; AUC(0-t) (in vivo): 123 ng·h/mL; Cmax (in vivo): 126 ng/mL; MRT inf (in vivo): 1.4 h; Tmax (in vivo): 0.5 h; half-life (in vivo): 1.12 h; concentration at 0.5 h (in vivo; Calculated Concentration): 146 ng/mL; concentration at 1 h (in vivo; Calculated Concentration): 56.1 ng/mL; concentration at 4 h (in vivo; Calculated Concentration): 5.56 ng/mL; concentration at 0.5 h (in vivo; Calculated Concentration, Mean): 126 ng/mL; concentration at 1 h (in vivo; Calculated Concentration, Mean): 42.6 ng/mL; concentration at 2 h (in vivo; Calculated Concentration, Mean): 14.9 ng/mL; concentration at 4 h (in vivo; Calculated Concentration, Mean): 5.74 ng/mL; AUC Extr ([1]; male, Balb/c nude): 7.26%; exposure (Cmax, AUC) compared with K601 (RSL3) [1]: higher exposure; IC50 (143B; 96 h, osteosarcoma, 96 hours, CellTiter Glo, read-out: IC50 143B): 9 nM
 |  | 524 | 338 | 333 | 151 | 47 | 38 | 120 | 516 | 112 | 41 | > 1000 | 230 | 10500 |  |  | COC(=O)[C@H]1Cc2c([nH]c3ccccc23)[C@H](c2ccc(NCC3CC3)cc2)N1C(=O)CCl [Example 83] | 3790 | 
14 | 33 | 48 | 49 | 38 | 9 | 6 | 5 | 13 | 27 | 32 | 5 | 27 | 12 | 2000 | 31 | 28 | COC(=O)[C@H]1Cc2c([nH]c3ccccc23)[C@H](c2ccc(N[C@]34CC5C[C@H](C[C@H](C5)C3)C4)cc2)N1C(=O)CCl [Example 29] | 410 | IC50 (AsPC-1; pancreatic adenocarcinoma, ascites, 96 hours, CellTiter Glo, read-out: IC50 AsPC-1): 23 nM
 |  | 129 | 228 | 96 | 28 | 17 | 12 | 73 | 70 | 50 | 13 | 78 | 47 | 533 |  |  | COC(=O)c1ccc([C@@H]2c3[nH]c4ccc(F)cc4c3C[C@H](C(=O)OC)N2C(=O)CCl)cc1 [Example 92] | 1140 | 
115 |  |  |  |  |  |  |  |  |  |  |  |  |  |  | 120 | 145 | C[C@H]1Cc2c([nH]c3ccc(F)cc23)[C@H](c2ccc(N3CCOCC3)cc2)N1C(=O)CCl [Example 114] |  | 
